Test results published in US20030013660A1, “Dioxolane analogs for improved inter-cellular delivery” (Shire BioChem Inc., priority 2000, published 2003).
Where two headings read alike, the source gives them in different places.

Tests used:
Experiment in all cases: 3H-TdR (3H-thymidine) incorporation assay at 72 hr
H-460 = type: cell-based, Human; details: Homo sapiens
CEM/dCK- = type: cell-based; details: for IC50: Homo sapiens, CCRF-CEM, read-out: IC50 CEM/dCK- 24 h, 24 h drug exposure, wash, another 48 hr, deoxycytidine kinase-deficient CCRF-CEM; for Factor* (Resistance Factor = Ratio of dCK- on Wild-type CCRF-CEM): ratio of IC50 CEM/dCK- to CCRF-CEM, 24 h
Experimental: (§1) Table of IC50 Values (μM) for Controls
(§2) Exposition of 24 hr to drug, wash, incubated for another 48 hr (total of 72 hr assay)
(§3) (3H-Thymidine Incorporation Assay)

CCRF-CEM = type: cell-based; details: Homo sapiens, CCRF-CEM
Experimental: as §1, §2, §3

MCF-7 = type: cell-based, Human; details: Homo sapiens
SF-268 = type: cell-based, Human; details: Homo sapiens
[1] = NCI-H460, read-out: IC50 H-460 24 h, 24 h drug exposure, wash, another 48 hr, 3H-TdR incorporation at 72 hr
[2] = read-out: IC50 CCRF-CEM 24 h, 24 h drug exposure, wash, another 48 hr, 3H-TdR incorporation at 72 hr
[3] = MCF7, read-out: IC50 MCF-7 24 h, 24 h drug exposure, wash, another 48 hr, 3H-TdR incorporation at 72 hr
[4] = SF-268, read-out: IC50 SF-268 24 h, 24 h drug exposure, wash, another 48 hr, 3H-TdR incorporation at 72 hr

| IC50 (H-460; [1]) | IC50 (CEM/dCK-) | IC50 (CCRF-CEM; [2]) | IC50 (MCF-7; [3]) | IC50 (SF-268; [4]) | Structure (SMILES) | Factor* (Resistance Factor = Ratio of dCK- on Wild-type CCRF-CEM) (CEM/dCK-) | IC50 (H-460; NCI-H460, read-out: IC50 H-460 24 h) | IC50 (CCRF-CEM; read-out: IC50 CCRF-CEM 24 h) | IC50 (MCF-7; MCF7, read-out: IC50 MCF-7 24 h) | IC50 (SF-268; SF-268, read-out: IC50 SF-268 24 h) |
| --- | --- | --- | --- | --- | --- | --- | --- | --- | --- | --- |
|  |  |  |  |  | COc1cc2c(cc1OC)C(=O)/C(=C/c1cc(C)c(OC(=O)OC[C@H]3OC[C@@H](n4ccc(N)nc4=O)O3)c(C)c1)C2 [Compound 112] | 10 | 11 nM | 5.8 nM | 16 nM | 6.7 nM |
| 240 nM | > 100000 nM | 60 nM | 480 nM | 1100 nM | COC1(OC[C@H]2OC[C@@H](n3ccc(N)nc3=O)O2)CCCCC1 [Compound 113, 4-AMINO-1-[2-(1- METHOXY- CYCLOHEXYLOXYMETHYL)- [1,3]DIOXOLAN-4-YL]-1H- PYRIMIDIN-2-ONE] | >1667 |  |  |  |  |
| 380 nM | > 100000 nM | 200 nM | 150 nM | 620 nM | CC(C)(C)OC(=O)N(CCCCC(=O)Nc1ccn([C@@H]2CO[C@H](CO)O2)c(=O)n1)Cc1ccccc1 [Compound 115, BENZYL-{4-[1-(2- HYDROXYMETHYL- [1,3]DIOXOLAN-4-YL)-2- OXO-1,2-DIHYDRO- PYRIMIDIN-4- YLCARBAMOYL]-BUTYL}- CARBAMIC ACID TERT!- BUTYL ESTER] | >500 |  |  |  |  |
| 1400 nM | > 100000 nM | 380 nM | 110 nM | 2500 nM | COc1ccc(OC(=O)OC[C@H]2OC[C@@H](n3ccc(NC(=O)OCc4ccccc4)nc3=O)O2)cc1 [Compound 116, CARBONIC ACID 4-(4- BENZYLOXYCARBONYLAMINO- 2-OXO-2H-PYRIMIDIN-1- YL)-[1,3]DIOXOLAN-2- YLMETHYL ESTER 4- METHOXY-PHENYL ESTER] | >263 |  |  |  |  |
| 22 nM | > 100000 nM | 28 nM | 77 nM | 160 nM | COc1ccc(OC(=O)OC[C@H]2OC[C@@H](n3ccc(N)nc3=O)O2)cc1 [Compound 118, CARBONIC ACID 4-(4- AMINO-2-OXO-2H- PYRIMIDIN-1-YL)- [1,3]DIOXOLAN-2- YLMETHYL ESTER 4- METHOXY-PHENYL ESTER] | >3571 |  |  |  |  |
| 17000 nM | 96000 nM | 56000 nM | 27000 nM | 94000 nM | CCCCCCNC(=O)Nc1ccn([C@@H]2CO[C@H](COC(=O)NCCCCCC)O2)c(=O)n1 [Compound 119, HEXYL-CARBANIC ACID 4- [4-(3-HEXYL-UREIDO)-2- OXO-2#H!-PYRIMIDIN-1- YL]-[1,3]DIOXOLAN-2- YLMETHYL ESTER] | ˜2 |  |  |  |  |
| > 100000 nM | > 100000 nM | > 100000 nM | 64000 nM | > 100000 nM | CCCCCCNC(=O)Nc1ccn([C@@H]2CO[C@H](CO)O2)c(=O)n1 [Compound 120, 1-HEXYL-3-[1-(2- HYDROXYMETHYL- [1,3]DIOXOLAN-4-YL)-2- OXO-1,2-DIHYDRO- PYRIMIDIN-4-YL]-UREA] |  |  |  |  |  |
| 28000 nM | > 100000 nM | 17000 nM | 37000 nM | > 100000 nM | CCCCCCNC(=O)OC[C@H]1OC[C@@H](n2ccc(N)nc2=O)O1 [Compound 121, HEXYL-CARBAMIC ACID 4- (4-AMINO-2-OXO-2H- PYRIMIDIN-1-YL)- [1,3]DIOXOLAN-2- YLMETHYL ESTER] | >6 |  |  |  |  |
| 1900 nM | 61000 nM | 710 nM | 210 nM | 570 nM | CCCCCCOC(=O)OC[C@H]1OC[C@@H](n2ccc(NC(=O)OCc3ccccc3)nc2=O)O1 [Compound 122, CARBONIC ACID 4-(4- BENZYLOXYCARBONYLAMINO- 2-OXO-2H-PYRIMIDIN-1- YL)-[1,3]DIOXOLAN-2- YLMETHYL ESTER HEXYL ESTER] | 86 |  |  |  |  |
| 1000 nM | 15000 nM | 870 nM | 1400 nM | 2000 nM | COc1ccc(C(OC[C@H]2OC[C@@H](n3ccc(N)nc3=O)O2)(c2ccccc2)c2ccc(OC)cc2)cc1 [Compound 123, 4-AMINO-1-{2-[BIS-(4- METHOXY-PHENYL)-PHENYL- METHOXYMETHYL]- [1,3]DIOXOLAN-4-YL}-1H- PYRIMIDIN-2-ONE] | 17 |  |  |  |  |
| 13000 nM | 27000 nM | 14000 nM | 14000 nM | 49000 nM | CC(C)c1ccc(NC(=O)OC[C@H]2OC[C@@H](n3ccc(NC(=O)OCc4ccccc4)nc3=O)O2)cc1 [Compound 124, {1-[2-(4-ISOPROPYL- PHENYLCARBAMOYLOXYMETHY L)-[1,3]DIOXOLAN-4-YL]- 2-OXO-1,2-DIHYDRO- PYRIMIDIN-4-YL}- CARBAMIC ACID BENZYL ESTER] | ˜2 |  |  |  |  |
| 240 nM | 7000 nM | 72 nM | 16 nM | 600 nM | CC(C)(C)OC(=O)N(CCCCC(C)(C)C(=O)Nc1ccn([C@@H]2CO[C@H](CO)O2)c(=O)n1)Cc1ccccc1 [Compound 125, Benzyl-{5-[1-(2-hydroxymethyl-[1,3]dioxolan-4-yl)-2-oxo-1,2-dihydro-pyrimidin-4-ylcarbamoyl]-5-methyl-hexyl}-carbamic acid tert-butyl ester] | 97 |  |  |  |  |
| 4.1 nM | 13000 nM | 1.6 nM | 2 nM | 8.5 nM | CCCCCCOC(=O)OC[C@H]1OC[C@@H](n2ccc(N)nc2=O)O1 [Compound 126, CARBONIC ACID 4-(4- AMINO-2-OXO-2H- PYRIMIDIN-1-YL)- [1,3]DIOXOLAN-2- YLMETHYL ESTER HEXYL ESTER] | 8,125 |  |  |  |  |
| 110 nM | 83000 nM | 21 nM | 100 nM | 12 nM | CC(C)C(NC(=O)OCc1ccccc1)C(=O)OC[C@H]1OC[C@@H](n2ccc(/N=C/N(C)C)nc2=O)O1 (stereo partly drawn) [Compound 131, (2S,4S)-2- (BENZYLOXYCARBONYL-L- VALINOXYMETHYL)-4-(4′- N,N- DIMETHYLAMINOMETHYLENE- CYTOSIN-1′-YL)-1,3- DIOXOLANE] | 3,952 |  |  |  |  |
| 21 nM | 31000 nM | 27 nM | 100 nM | 16 nM | CN(C)/C=N/c1ccn([C@@H]2CO[C@H](COC(=O)C(C)(C)C)O2)c(=O)n1 [Compound 133, 2,2-Dimethyl-propionic acid 4-[4-(dimethylamino-methyleneamino)-2-oxo-2H-pyrimidin-1-yl]-[1,3]dioxolan-2-ylmethyl ester] | 1,148 |  |  |  |  |

| Structure (SMILES) | IC50 (H-460; [1]) | IC50 (CEM/dCK-) | IC50 (CCRF-CEM; [2]) | IC50 (MCF-7; [3]) | IC50 (SF-268; [4]) | Factor* (Resistance Factor = Ratio of dCK- on Wild-type CCRF-CEM) (CEM/dCK-) | IC50 (H-460; NCI-H460, read-out: IC50 H-460 24 h) | IC50 (CCRF-CEM; read-out: IC50 CCRF-CEM 24 h) | IC50 (MCF-7; MCF7, read-out: IC50 MCF-7 24 h) | IC50 (SF-268; SF-268, read-out: IC50 SF-268 24 h) |
| --- | --- | --- | --- | --- | --- | --- | --- | --- | --- | --- |
| CC(C)(C)OC(=O)N(CCCCC(=O)OC[C@H]1OC[C@@H](n2ccc(N)nc2=O)O1)Cc1ccccc1 [Compound 111, 5-(BENZYL-TERT- BUTOXYCARBONYL-AMINO)- PENTANOIC ACID 4-(4- AMINO-2-OXO-2H- PYRIMIDIN-1-YL)- [1,3]DIOXOLAN-2- YLMETHYL ESTER] | 0.13 nM | 2600 nM | 0.2 nM | 0.26 nM | 2.1 nM | 13000 |  |  |  |  |
| CC(C)(C)OC(=O)N(CCCCC(=O)Nc1ccn([C@@H]2CO[C@H](COC(=O)CCCCN(Cc3ccccc3)C(=O)OC(C)(C)C)O2)c(=O)n1)Cc1ccccc1 [Compound 114, 5-(BENZYL-TERT- BUTOXYCARBONYL-AMINO)- PENTANOIC ACID 4-{4-[5- (BENZYL-TERT- BUTOXYCARBONYL-AMINO)- PENTANOYLAMINO]-2-OXO- 2H!PYRIMIDIN-1-YL}- [1,3]DIOXOLAN-2- YLMETHYL ESTER] | 66 nM | 8000 nM | 16 nM | 17 nM | 41 nM | 500 |  |  |  |  |
| CN(C)/C=N/c1ccn([C@@H]2CO[C@H](COC(=O)CC34CC5CC(CC(C5)C3)C4)O2)c(=O)n1 [Compound 129, (2S,4S)-2-(1″- ADMANTANEACETOXY)METHYL -4-(4′-N,N- DIMETHYLAMINOMETHYLENE- CYTOSIN-1′-YL)-1,3- DIOXOLANE] | 150 nM | 15000 nM | 72 nM | 20 nM | 200 nM | 208 |  |  |  |  |
| CN(C)/C=N/c1ccn([C@@H]2CO[C@H](COC(=O)C(c3ccccc3)c3ccccc3)O2)c(=O)n1 [Compound 130, (2S,4S)-2-(2″- DIPHENYLACETOXYMETHYL)- 4-(4′-N,N- DIMETHYLAMINOMETHYLENE- CYTOSIN-1′-YL)-1,3- DIOXOLANE] | 58 nM | 75000 nM | 57 nM | 50 nM | 110 nM | 1,316 |  |  |  |  |
